We go through 45 compounds from patent US9605003B2, “Heterocyclic compounds and uses thereof” (Infinity Pharmaceuticals, Inc., priority 2011, dated 2017).

What is called EC50 is the concentration at which the effect is half-maximal. High values mean a need for much substance, low ones an effect from little substance. In general, IC50 refers to the concentration needed to halve the response being measured.

Structures are written as SMILES.

In experiment [1] the test system is Balb/c splenic B cells. Briefly: B cell activation and proliferation assay (Alamar Blue). As to conditions: Mus musculus, Less than 100 nanoMolar. In kind it is cell-based. The procedure:
The ability of one or more subject compounds to inhibit B cell activitation and proliferation is determined according to standard procedures known in the art. For example, an in vitro cellular proliferation assay is established that measures the metabolic activity of live cells. The assay is performed in a 96 well microtiter plate using Alamar Blue reduction. Balb/c splenic B cells are purified over a Ficoll-Paque™ PLUS gradient followed by magnetic cell separation using a MACS B cell Isolation Kit (Miletenyi). Cells are plated in 90 μl at 50,000 cells/well in B Cell Media (RPMI+10% FBS+Penn/Strep+50 μM bME+5 mM HEPES). A compound provided herein is diluted in B Cell Media and added in a 10 μl volume. Plates are incubated for 30 min at 37° C. and 5% CO2 (0.2% DMSO final concentration). A 50 μl B cell stimulation cocktail is then added containing either 10 μg/ml LPS or 5 μg/ml F(ab′)2 Donkey anti-mouse IgM plus 2 ng/ml recombinant mouse IL4 in B Cell Media. Plates are incubated for 72 hours at 37° C. and 5% CO2. A volume of 15 μL of Alamar Blue reagent is added to each well and plates are incubated for 5 hours at 37° C. and 5% CO2. Alamar Blue fluoresce is read at 560Ex/590Em, and IC50 or EC50 values are calculated using GraphPad Prism 5.
On the technique in general: Alamar Blue is a resazurin reagent that responds to reducing activity.

The target in experiment [2] is T1, PI3Kα (Homo sapiens, UniProt P42336).
T1 construct: purchased Millipore Corporation 14-602-K
T1 sequence (P42336 whole entry): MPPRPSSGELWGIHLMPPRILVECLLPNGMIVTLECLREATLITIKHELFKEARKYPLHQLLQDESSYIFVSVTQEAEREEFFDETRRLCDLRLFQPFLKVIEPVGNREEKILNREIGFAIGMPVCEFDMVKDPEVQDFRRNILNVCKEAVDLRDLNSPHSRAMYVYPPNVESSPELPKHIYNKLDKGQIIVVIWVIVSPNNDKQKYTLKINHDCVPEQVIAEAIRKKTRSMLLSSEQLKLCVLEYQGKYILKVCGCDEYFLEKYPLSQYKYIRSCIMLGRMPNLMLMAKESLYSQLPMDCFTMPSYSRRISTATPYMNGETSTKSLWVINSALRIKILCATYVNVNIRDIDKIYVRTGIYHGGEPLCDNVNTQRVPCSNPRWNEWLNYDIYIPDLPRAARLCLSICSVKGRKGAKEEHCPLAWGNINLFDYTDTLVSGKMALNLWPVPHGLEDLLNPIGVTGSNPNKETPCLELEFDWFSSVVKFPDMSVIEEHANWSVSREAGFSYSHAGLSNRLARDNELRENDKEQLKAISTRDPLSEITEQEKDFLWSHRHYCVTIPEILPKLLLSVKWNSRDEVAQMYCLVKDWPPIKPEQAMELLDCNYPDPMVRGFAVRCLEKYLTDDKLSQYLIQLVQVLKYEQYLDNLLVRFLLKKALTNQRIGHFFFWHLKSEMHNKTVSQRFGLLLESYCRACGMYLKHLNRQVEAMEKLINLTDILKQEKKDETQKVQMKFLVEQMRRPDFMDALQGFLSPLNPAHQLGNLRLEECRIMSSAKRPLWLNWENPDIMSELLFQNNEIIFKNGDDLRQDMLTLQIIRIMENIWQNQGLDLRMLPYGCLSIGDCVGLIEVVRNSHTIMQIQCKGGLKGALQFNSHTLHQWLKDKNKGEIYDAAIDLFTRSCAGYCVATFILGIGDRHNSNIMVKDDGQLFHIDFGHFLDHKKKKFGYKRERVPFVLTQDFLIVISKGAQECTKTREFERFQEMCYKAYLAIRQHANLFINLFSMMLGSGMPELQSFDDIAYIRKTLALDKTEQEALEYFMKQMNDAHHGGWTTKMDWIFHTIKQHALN
T1 sequence (P27986 whole entry partner): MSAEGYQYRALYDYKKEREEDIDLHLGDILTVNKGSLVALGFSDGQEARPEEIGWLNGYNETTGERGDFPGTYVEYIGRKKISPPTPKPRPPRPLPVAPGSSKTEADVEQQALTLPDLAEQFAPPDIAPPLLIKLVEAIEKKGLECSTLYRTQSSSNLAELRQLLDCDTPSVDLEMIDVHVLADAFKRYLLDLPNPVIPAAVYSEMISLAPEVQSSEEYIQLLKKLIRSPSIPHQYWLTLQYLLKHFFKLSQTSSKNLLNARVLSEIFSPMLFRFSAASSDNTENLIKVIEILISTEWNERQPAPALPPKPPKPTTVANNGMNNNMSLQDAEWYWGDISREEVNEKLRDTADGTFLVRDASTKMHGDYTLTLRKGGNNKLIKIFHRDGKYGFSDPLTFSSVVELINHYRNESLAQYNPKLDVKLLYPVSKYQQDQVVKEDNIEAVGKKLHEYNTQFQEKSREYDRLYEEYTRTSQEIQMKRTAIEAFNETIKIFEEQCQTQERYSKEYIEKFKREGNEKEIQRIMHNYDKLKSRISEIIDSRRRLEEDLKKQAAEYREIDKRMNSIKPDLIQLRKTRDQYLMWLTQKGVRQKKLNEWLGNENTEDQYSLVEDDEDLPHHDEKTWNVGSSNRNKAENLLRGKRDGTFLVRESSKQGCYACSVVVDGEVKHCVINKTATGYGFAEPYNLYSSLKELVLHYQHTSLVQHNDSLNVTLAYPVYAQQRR
As to the kind of experiment: PI3 Kinase HTRF assay, PI3Kα. The class given is biochemical. Particulars: Between 1 μM and 10 μM; read-out: PI3K α IC50. From the text:
(§1) A PI3-Kinase HTRF® assay kit (cat No. 33-016) purchased from Millipore Corporation was used to screen compounds provided herein. This assay used specific, high affinity binding of the GRP1 pleckstrin homology (PH) domain to PIP3, the product of a Class 1A or 1B PI3 Kinase acting on its physiological substrate PIP2. During the detection phase of the assay, a complex was generated between the GST-tagged PH domain and biotinylated short chain PIP3. The biotinylated PIP3 and the GST-tagged PH domain recruited fluorophores (Streptavidin-Allophycocyanin and Europium-labeled anti-GST respectively) to form the fluorescence resonance energy transfer (FRET) architecture, generating a stable time-resolved FRET signal. The FRET complex was disrupted in a competitive manner by non-biotinylated PIP3, a product formed in the PI3 Kinase assay.
(§2) PI3 Kinase α, β, γ and δ activity was assayed using the PI3 Kinase HTRF® assay kit (catalogue No. 33-016) purchased from Millipore Corporation. Purified recombinant PI3Kα (catalogue No. 14-602-K), PI3Kβ (catalogue No. 14-603-K), PI3Kγ (catalogue No. 14-558-K) and PI3Kδ (catalogue No. 14-604-K) were obtained from Millipore Corporation. Purified recombinant PI3K enzyme was used to catalyze the phosphorylation of phosphatidylinositol 4,5-bisphosphate (PIP2 at 10 μM) to phosphatidylinositol 3,4,5-trisphosphate (PIP3) in the presence of 10 μM ATP. The assay was carried out in 384-well format and detected using a Perkin Elmer EnVision Xcite Multilabel Reader. Emission ratios were converted into percent inhibitions and imported into GraphPad Prism software. The concentration necessary to achieve inhibition of enzyme activity by 50% (IC50) was calculated using concentrations ranging from 20 μM to 0.1 nM (12-point curve). IC50 values were determined using a nonlinear regression model available in GraphPad Prism 5.
For orientation: TR-FRET usually uses a lanthanide donor and a delayed reading to cut background.

Experiment [3] deals with T2, PI3Kβ (Homo sapiens, UniProt P42338).
T2 construct: purchased Millipore Corporation 14-603-K
T2 sequence (P42338 whole entry): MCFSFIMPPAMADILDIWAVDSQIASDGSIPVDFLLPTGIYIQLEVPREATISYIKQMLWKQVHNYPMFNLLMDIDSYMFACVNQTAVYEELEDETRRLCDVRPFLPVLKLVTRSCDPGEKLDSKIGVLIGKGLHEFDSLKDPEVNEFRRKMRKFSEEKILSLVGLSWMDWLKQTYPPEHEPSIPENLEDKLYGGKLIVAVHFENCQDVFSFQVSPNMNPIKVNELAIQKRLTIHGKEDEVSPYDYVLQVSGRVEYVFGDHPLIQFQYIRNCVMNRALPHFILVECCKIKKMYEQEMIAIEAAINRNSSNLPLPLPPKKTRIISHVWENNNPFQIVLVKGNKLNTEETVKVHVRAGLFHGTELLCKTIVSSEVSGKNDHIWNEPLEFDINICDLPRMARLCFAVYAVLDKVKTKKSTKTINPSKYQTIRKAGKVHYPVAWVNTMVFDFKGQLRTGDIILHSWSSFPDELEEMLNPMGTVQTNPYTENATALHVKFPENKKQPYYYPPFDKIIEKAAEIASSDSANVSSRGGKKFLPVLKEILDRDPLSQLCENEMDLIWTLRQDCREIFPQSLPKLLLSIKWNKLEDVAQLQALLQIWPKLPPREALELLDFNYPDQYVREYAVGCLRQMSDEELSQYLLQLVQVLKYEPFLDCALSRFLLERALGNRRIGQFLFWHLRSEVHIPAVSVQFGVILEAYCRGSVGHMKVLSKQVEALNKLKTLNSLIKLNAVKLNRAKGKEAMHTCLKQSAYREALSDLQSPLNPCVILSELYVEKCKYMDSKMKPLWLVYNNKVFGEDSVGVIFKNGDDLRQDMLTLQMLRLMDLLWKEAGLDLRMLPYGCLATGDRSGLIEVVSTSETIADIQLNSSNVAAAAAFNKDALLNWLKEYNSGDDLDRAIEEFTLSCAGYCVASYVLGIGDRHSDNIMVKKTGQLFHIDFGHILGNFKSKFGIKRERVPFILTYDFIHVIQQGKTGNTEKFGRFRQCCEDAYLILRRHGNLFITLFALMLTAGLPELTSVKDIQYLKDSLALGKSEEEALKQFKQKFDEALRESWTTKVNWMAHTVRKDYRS
T2 sequence (P27986 2-724 partner limits assumed): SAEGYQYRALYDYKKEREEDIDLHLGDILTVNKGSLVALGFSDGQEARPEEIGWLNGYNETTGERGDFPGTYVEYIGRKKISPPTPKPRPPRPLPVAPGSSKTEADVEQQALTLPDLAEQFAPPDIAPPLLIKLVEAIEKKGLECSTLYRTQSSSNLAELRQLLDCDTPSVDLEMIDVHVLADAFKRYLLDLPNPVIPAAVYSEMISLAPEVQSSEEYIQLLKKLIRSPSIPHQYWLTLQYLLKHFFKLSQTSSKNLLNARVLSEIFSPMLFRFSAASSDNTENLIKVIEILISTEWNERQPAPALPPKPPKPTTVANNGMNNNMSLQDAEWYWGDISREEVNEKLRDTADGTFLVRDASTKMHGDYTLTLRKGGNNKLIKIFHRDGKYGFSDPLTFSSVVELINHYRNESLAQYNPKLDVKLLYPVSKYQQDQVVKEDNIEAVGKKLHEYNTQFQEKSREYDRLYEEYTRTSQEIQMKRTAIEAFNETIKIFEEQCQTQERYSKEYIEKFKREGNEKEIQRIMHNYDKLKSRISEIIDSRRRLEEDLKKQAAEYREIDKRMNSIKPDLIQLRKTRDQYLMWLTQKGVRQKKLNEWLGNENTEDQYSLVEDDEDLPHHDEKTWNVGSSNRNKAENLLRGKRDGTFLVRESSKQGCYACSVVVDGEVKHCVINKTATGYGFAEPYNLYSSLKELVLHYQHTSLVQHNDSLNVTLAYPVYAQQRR
As to the kind of experiment: PI3 Kinase HTRF assay, PI3Kβ. The class given is biochemical. As to conditions: Between 1 μM and 10 μM; read-out: PI3K β IC50.
Text: as §1, §2

As to `C[C@H](Nc1ncnc2scnc12)c1cc2cccc(Cl)c2c(=O)n1-c1ccccc1` [Compound 2], the EC50 in experiment [1] is below 0.1 µM.

With `C[C@H](Nc1ncnc2scnc12)c1cc2cccc(Cl)c2c(=O)n1C1CC1` [Compound 8], in experiment [1], the EC50 is below 0.1 µM.

For `C[C@H](Nc1ncnc2scnc12)c1cc2cccc(-c3cnn(C)c3)c2c(=O)n1C1CC1` [Compound 9], in experiment [1], the EC50 was below 0.1 µM.

In experiment [1], `C[C@H](Nc1ncnc2scnc12)c1cc2cccc(-c3ccc(C(F)(F)F)nc3)c2c(=O)n1-c1ccccc1` [Compound 13] returned a 50% effective concentration (EC50) below 0.1 µM.

As to `C[C@H](Nc1ncnc2scnc12)c1cc2scc(Cl)c2c(=O)n1-c1ccccc1` [Compound 15], in experiment [2], the IC50 was in the range of 1 to 10 µM.

For the compound `C[C@H](Nc1ncnc2scnc12)c1cc2scc(-c3cnn(C)c3)c2c(=O)n1-c1ccccc1` [Compound 16], the IC50 in experiment [2] is 1 to 10 µM.

With `C[C@H](Nc1ncnc2scnc12)c1cc2cccc(-c3ccnc(C(F)(F)F)c3)c2c(=O)n1-c1ccccc1` [Compound 17], the concentration for half-maximal inhibition (IC50) in experiment [3] and in experiment [2] was 1 to 10 µM in each case.

`COc1ccc(-c2cccc3cc([C@H](C)Nc4ncnc5scnc45)n(-c4ccccc4)c(=O)c23)cn1` [Compound 18]: the IC50 in experiment [3] and in experiment [2] was 1 to 10 µM each time.

Take `C[C@H](Nc1ncnc2scnc12)c1cc2cccc(-c3cncnc3)c2c(=O)n1-c1ccccc1` [Compound 19]: the IC50 in experiment [3] and in experiment [2] was 1 to 10 µM throughout.

Regarding `Cc1cncc(-c2cccc3cc([C@H](C)Nc4ncnc5scnc45)n(-c4ccccc4)c(=O)c23)c1` [Compound 20], in experiment [3], the IC50 is 1 to 10 µM.

On to `CC(C)n1cc(-c2cccc3cc([C@H](C)Nc4ncnc5scnc45)n(-c4ccccc4)c(=O)c23)cn1` [Compound 23], for which, in experiment [2], the IC50 lay in the range of 1 to 10 µM.

Consider `CC(C)Cn1cc(-c2cccc3cc([C@H](C)Nc4ncnc5scnc45)n(-c4ccccc4)c(=O)c23)cn1` [Compound 24], for which, in experiment [2], the concentration for half-maximal inhibition (IC50) is 1 to 10 µM.

Regarding `CCn1cc(-c2cccc3cc([C@H](C)Nc4ncnc5scnc45)n(-c4ccccc4)c(=O)c23)cn1` [Compound 25], the IC50 in experiment [3] and in experiment [2] was 1 to 10 µM throughout.

For `C[C@H](Nc1ncnc2scnc12)c1cc2cccc(-c3cn[nH]c3)c2c(=O)n1-c1ccccc1` [Compound 26], the IC50 in experiment [3] and in experiment [2] was 1 to 10 µM throughout.

Turning to `Cc1cc(-c2cccc3cc([C@H](C)Nc4ncnc5scnc45)n(-c4ccccc4)c(=O)c23)ccn1` [Compound 27], the half-inhibitory concentration (IC50) in experiment [3] fell in the range of 1 to 10 µM.

As for `C[C@H](Nc1ncnc2scnc12)c1cc2cccc(-c3cccnc3)c2c(=O)n1-c1ccccc1` [Compound 28], the IC50 in experiment [3] and in experiment [2] was 1 to 10 µM each time.

As for `CCCn1cc(-c2cccc3cc([C@H](C)Nc4ncnc5scnc45)n(-c4ccccc4)c(=O)c23)cn1` [Compound 29], the IC50 in experiment [3] and in experiment [2] was 1 to 10 µM in each case.

`Cc1cc(-c2cccc3cc([C@H](C)Nc4ncnc5scnc45)n(-c4ccccc4)c(=O)c23)cnc1F` [Compound 30]: the IC50 in experiment [3] and in experiment [2] was 1 to 10 µM throughout.

Regarding `COc1cccc(-c2cccc3cc([C@H](C)Nc4ncnc5scnc45)n(-c4ccccc4)c(=O)c23)c1` [Compound 31], the IC50 in experiment [3] fell in the range of 1 to 10 µM.

`C[C@H](Nc1ncnc2scnc12)c1cc2cccc(-c3ccncc3)c2c(=O)n1-c1ccccc1` [Compound 33]: in experiment [3], the IC50 lay in the range of 1 to 10 µM.

As to `C[C@H](Nc1ncnc2scnc12)c1cc2cccc(-c3ccoc3)c2c(=O)n1-c1ccccc1` [Compound 34], the IC50 in experiment [3] lay within 1 to 10 µM.

Regarding `COc1ccccc1-c1cccc2cc([C@H](C)Nc3ncnc4scnc34)n(-c3ccccc3)c(=O)c12` [Compound 35], the IC50 in experiment [3] and in experiment [2] was 1 to 10 µM each time.

Take `COc1cnccc1-c1cccc2cc([C@H](C)Nc3ncnc4scnc34)n(-c3ccccc3)c(=O)c12` [Compound 36]: the half-maximal inhibitory concentration (IC50) in experiment [3] and in experiment [2] was 1 to 10 µM in each case.

Consider `Cc1ncc(-c2cccc3cc([C@H](C)Nc4ncnc5scnc45)n(-c4ccccc4)c(=O)c23)cn1` [Compound 37], for which the half-maximal inhibitory concentration (IC50) in experiment [2] fell in the range of 1 to 10 µM.

The compound `COc1cncc(-c2cccc3cc([C@H](C)Nc4ncnc5scnc45)n(-c4ccccc4)c(=O)c23)c1` [Compound 39] registered an EC50 in experiment [1] below 0.1 µM.

Consider `Cc1cc(-c2cccc3cc([C@H](C)Nc4ncnc5scnc45)n(-c4ccccc4)c(=O)c23)cnc1C` [Compound 40], for which the half-maximal inhibitory concentration (IC50) in experiment [3] and in experiment [2] was 1 to 10 µM in each case.

With `C[C@H](Nc1ncnc2scnc12)c1cc2cccc(-c3cnc4ccccc4c3)c2c(=O)n1-c1ccccc1` [Compound 41], in experiment [1], the EC50 was below 0.1 µM.

Consider `Cc1nn(C)cc1-c1cccc2cc([C@H](C)Nc3ncnc4scnc34)n(-c3ccccc3)c(=O)c12` [Compound 42], for which the IC50 in experiment [3] lay in the range of 1 to 10 µM.

For `C[C@H](Nc1ncnc2scnc12)c1cc2cccc(-c3cccc(N(C)C)c3)c2c(=O)n1-c1ccccc1` [Compound 45], the IC50 in experiment [3] is 1 to 10 µM. In experiment [1], this compound showed an EC50 below 0.1 µM.

`C[C@H](Nc1ncnc2scnc12)c1cc2cccc(-c3ccc(N)nc3)c2c(=O)n1-c1ccccc1` [Compound 46]: the IC50 in experiment [3] fell in the range of 1 to 10 µM. Moreover, in experiment [1], the EC50 was below 0.1 µM.

With `C[C@H](Nc1ncnc2scnc12)c1cc2cccc(-c3cnc(N)nc3)c2c(=O)n1-c1ccccc1` [Compound 50], in experiment [3], the IC50 is 1 to 10 µM. Moreover, in experiment [1], the concentration giving a half-maximal response (EC50) was below 0.1 µM.

Regarding `C[C@H](Nc1ncnc2scnc12)c1cc2cccc(-c3ccc(=O)n(C)c3)c2c(=O)n1-c1ccccc1` [Compound 51], the IC50 in experiment [3] lay in the range of 1 to 10 µM. Besides, the half-maximal effective concentration (EC50) in experiment [1] is below 0.1 µM.

As for `COc1cc(-c2cccc3cc([C@H](C)Nc4ncnc5scnc45)n(-c4ccccc4)c(=O)c23)ccn1` [Compound 52], the half-maximal inhibitory concentration (IC50) in experiment [3] was 1 to 10 µM. For the same compound, the EC50 in experiment [1] is below 0.1 µM.

On to `C[C@H](Nc1ncnc2scnc12)c1cc2cccc(-c3cnc4c(c3)CCCO4)c2c(=O)n1-c1ccccc1` [Compound 54], for which the half-maximal inhibitory concentration (IC50) in experiment [3] lay within 1 to 10 µM. In addition, the EC50 in experiment [1] is below 0.1 µM.

As to `C[C@H](Nc1ncnc2scnc12)c1cc2cccc(-c3cnc4ccoc4c3)c2c(=O)n1-c1ccccc1` [Compound 55], the IC50 in experiment [3] lay within 1 to 10 µM. This compound showed an EC50 in experiment [1] below 0.1 µM.

In the case of `C[C@H](Nc1ncnc2scnc12)c1cc2cccc(-c3cnc4nccnc4c3)c2c(=O)n1-c1ccccc1` [Compound 57], the EC50 in experiment [1] is below 0.1 µM.

With `C[C@H](Nc1ncnc2scnc12)c1cc2cccc(-c3ccc(N)nc3)c2c(=O)n1C1CC1` [Compound 63], the EC50 in experiment [1] was below 0.1 µM.

For `COc1cncc(-c2cccc3cc([C@H](C)Nc4ncnc5scnc45)n(C4CC4)c(=O)c23)c1` [Compound 64], the concentration for a half-maximal effect (EC50) in experiment [1] was below 0.1 µM.

Regarding `C[C@H](Nc1ncnc2scnc12)c1cc2cccc(Cl)c2c(=O)n1CCN1CCCC1` [Compound 68], the EC50 in experiment [1] was below 0.1 µM.

In the case of `Cc1ccnc2cc(C(C)Nc3ncnc4scnc34)n(-c3ccccc3)c(=O)c12` (stereo not shown) [Compound 70], the IC50 in experiment [3] was 1 to 10 µM.

As for `C[C@H](Nc1ncnc2scnc12)c1cc2ccccc2c(=O)n1-c1ccccc1` [Compound 71], the IC50 in experiment [3] and in experiment [2] was 1 to 10 µM in each case.

`C[C@H](Nc1ncnc2scnc12)c1cc2cccc(Cl)c2c(=O)n1-c1cccc(C(F)(F)F)c1` [Compound 73]: the IC50 in experiment [3] was in the range of 1 to 10 µM.

As for `C[C@H](Nc1nc(Cl)nc2scnc12)c1cc2cccc(-c3cnn(C)c3)c2c(=O)n1-c1ccccc1` [Compound 75], the IC50 in experiment [3] and in experiment [2] was 1 to 10 µM in each case.

On to `C[C@H](Nc1ccnc2scnc12)c1cc2cccc(-c3cnn(C)c3)c2c(=O)n1-c1ccccc1` [Compound 91], for which the IC50 in experiment [3] and in experiment [2] was 1 to 10 µM in each case.

Turning to `COc1ncc(-c2cccc3cc([C@H](C)Nc4ncnc5scnc45)n(-c4ccccc4)c(=O)c23)s1` [Compound 93], the IC50 in experiment [3] was in the range of 1 to 10 µM. In addition, in experiment [1], the EC50 was below 0.1 µM.
